Earlier results on one compound are cited in US20230035823A1, “ANTIHISTAMINE AND ANTI-MICROBIAL NASAL SOLUTIONS AND RELATED METHODS” (Xlear, Inc., priority 2021, published 2023).

The subject of one data set is Streptococcus pneumonia. The conditions noted are these: in vitro, during logarithmic growth phase.
The conditions of data set [1]: regular consumption.
The conditions of data set [2]: in vivo.

Take `OC[C@@H](O)[C@H](O)[C@@H](O)CO` [Xylitol, xylitol]: the “growth of Streptococcus pneumonia” value in the data set with Streptococcus pneumonia was “inhibit the growth”. Besides, the “incidence of dental caries” value in data set [1] is “reduce the incidence of dental caries”. In data set [2], the moisturizing nasal passages entry was “very effective”.
